{"source": "patent US9371281B2", "about": "“Indole derivatives as inhibitors of histone deacetylase” (Pharmacyclics LLC, priority 2006, dated 2016)", "key": {"RKO (colon)": {"tested_on": "RKO (colon)", "assay": "Apoptosis in solid tumor cells, Annexin V assay", "assay_type": "cell-based"}, "MCF-7 (breast)": {"tested_on": "MCF-7 (breast)", "assay": "Apoptosis in solid tumor cells, Annexin V assay", "assay_type": "cell-based"}, "[1]": {"tested_on": "IL-1b secretion in human PBMCs", "assay": "Inhibition of IL-1b secretion in human PBMCs", "assay_type": "cell-based", "conditions": "FIG. 11", "protocol": "Lipopolysaccharide (LPS, 25 ng/ml) is then added to stimulate the cells for another 16 hour incubation period in 5% CO2. IL-1b cytokine levels in the conditioned medium are then quantitated using a sandwich ELISA kit. Compounds are screened at 10, 1, 0.1, 0.01 and 0.001 μM. These same concentrations are concurrently applied to a separate group of treated cells and evaluated for possible compound-induced cytotoxicity."}, "Jurkat cells": {"tested_on": "Jurkat cells", "assay": "Compound 23 induced apoptosis with Ca2+ effectors", "assay_type": "cell-based", "from_the_text": "[…]. […] […]."}, "J.RT3-T.5 [2]": {"tested_on": "J.RT3-T.5", "assay": "Apoptosis in T-cell lines, Annexin-V positive cells by flow cytometry", "assay_type": "cell-based", "conditions": "3 Day dose"}, "HDAC8 protein expression": {"tested_on": "HDAC8 protein expression", "assay": "Western blot of HDAC8 after 24 hr treatment in Jurkat cells", "quoted_text": "(§1) Western blot of HDAC8 & HDAC1 after 24 hr treatment in Jurkat cells were obtained."}, "U87 (glioma)": {"tested_on": "U87 (glioma)", "assay": "Apoptosis in solid tumor cells, Annexin V assay", "assay_type": "cell-based"}, "[3]": {"tested_on": "normal human peripheral blood mononuclear cells", "assay": "Cell proliferation, Alamar Blue assay (FIG. 9B)", "assay_type": "cell-based", "conditions": "PBMCs, 24 hours"}, "J.γ1 [4]": {"tested_on": "J.γ1", "assay": "Apoptosis in T-cell lines, Annexin-V positive cells by flow cytometry", "assay_type": "cell-based", "conditions": "3 Day dose"}, "Jurkat [5]": {"tested_on": "Jurkat", "assay": "Apoptosis in T-cell lines, Annexin-V positive cells by flow cytometry", "assay_type": "cell-based", "conditions": "3 Day dose"}, "[6]": {"tested_on": "Cytochrome C translocation in Jurkat cells", "assay": "Cytochrome C translocation, Western blotting of mitochondrial and cytosolic fractions", "assay_type": "cell-based", "conditions": "12 or 24 hours"}, "P116 [7]": {"tested_on": "P116", "assay": "Apoptosis in T-cell lines, Annexin-V positive cells by flow cytometry", "assay_type": "cell-based", "conditions": "3 Day dose"}, "[8]": {"tested_on": "IL-1b secretion in THP-1 monocyte cell line", "conditions": "LPS, FIG. 12"}, "Ovcar-3 (ovarian)": {"tested_on": "Ovcar-3 (ovarian)", "assay": "Apoptosis in solid tumor cells, Annexin V assay", "assay_type": "cell-based"}, "PC3 (prostate)": {"tested_on": "PC3 (prostate)", "assay": "Apoptosis in solid tumor cells, Annexin V assay", "assay_type": "cell-based"}, "HCT116 (colon)": {"tested_on": "HCT116 (colon)", "assay": "Apoptosis in solid tumor cells, Annexin V assay", "assay_type": "cell-based, human"}, "A549 (lung)": {"tested_on": "A549 (lung)", "assay": "Apoptosis in solid tumor cells, Annexin V assay", "assay_type": "cell-based"}, "J.RT3-T.5 [9]": {"tested_on": "J.RT3-T.5", "assay": "Growth inhibition in T-cell lines (Table 6)", "assay_type": "cell-based", "conditions": "72 h, J.RT3-T.5 (TCR-β chain deficient), 3 Day dose"}, "P116 [10]": {"tested_on": "P116", "assay": "Growth inhibition in T-cell lines (Table 6)", "assay_type": "cell-based", "conditions": "72 h, P116 (ZAP-70 deficient), 3 Day dose"}, "J.γ1 [11]": {"tested_on": "J.γ1", "assay": "Growth inhibition in T-cell lines (Table 6)", "assay_type": "cell-based", "conditions": "72 h, J.γ1 (Phospholipase C-γ1 deficient), 3 Day dose"}, "Jurkat [12]": {"tested_on": "Jurkat", "assay": "Growth inhibition in T-cell lines (Table 6)", "assay_type": "cell-based", "conditions": "Homo sapiens, 72 h, 3 Day dose"}, "HDAC1 levels": {"tested_on": "HDAC1 levels", "conditions": "Jurkat cells, 24 hr treatment, Western blot", "quoted_text": "as §1"}}, "note": "Entries after “also recorded” stand apart in the source; their conditions may differ.", "data": [{"smiles": "COc1ccc(Cn2ccc3ccc(C(=O)NO)cc32)cc1", "note": "[Compound 23, 1-(4-methoxy-phenylmethyl)-1H-indole-6-carboxylic acid hydroxyamide]", "values": [{"measurement": "% apoptosis at 20 μM (Annexin V assay)", "setting": "RKO (colon)", "value": 0, "unit": "%"}, {"measurement": "% apoptosis at 20 μM (Annexin V assay)", "setting": "MCF-7 (breast)", "value": 0, "unit": "%"}, {"measurement": "IL-1b secretion", "setting": "[1]", "value": "inhibition of IL-1b secretion"}, {"measurement": "compound 23 induced apoptosis with Ca2+ effector thapsigargin", "setting": "Jurkat cells; compound 23=5 μM, thapsigargin=0.2 μM", "value": "enhanced"}, {"measurement": "compound 23 induced apoptosis with Ca2+ chelator BAPTA-AM", "setting": "Jurkat cells; compound 23=10 μM, BAPTA 0.5 μM", "value": "inhibited"}, {"measurement": "Apoptosis at 5 μM (%)", "setting": "J.RT3-T.5 [2]; J.RT3-T.5, 5 μM", "value": 67, "unit": "%"}, {"measurement": "HDAC8 protein levels", "setting": "HDAC8 protein expression", "value": "affected"}, {"measurement": "% apoptosis at 20 μM (Annexin V assay)", "setting": "U87 (glioma)", "value": 0, "unit": "%"}, {"measurement": "effect on growth", "setting": "[3]", "value": "failed to inhibit the growth; also recorded: does not inhibit growth"}, {"measurement": "Apoptosis at 5 μM (%)", "setting": "J.γ1 [4]; J.γ1, 5 μM", "value": 12, "unit": "%"}, {"measurement": "Apoptosis at 5 μM (%)", "setting": "Jurkat [5]; 5 μM", "value": 43, "unit": "%"}, {"measurement": "Cytochrome C translocation from mitochondria to cytosol", "setting": "[6]", "value": "Cytochrome C translocation from mitochondria to cytosol"}, {"measurement": "Apoptosis at 5 μM (%)", "setting": "P116 [7]; P116, 5 μM", "value": 82, "unit": "%"}, {"measurement": "IL-1b secretion", "setting": "[8]", "value": "reduction of IL-1b secretion"}, {"measurement": "% apoptosis at 20 μM (Annexin V assay)", "setting": "Ovcar-3 (ovarian)", "value": 15, "unit": "%"}, {"measurement": "% apoptosis at 20 μM (Annexin V assay)", "setting": "PC3 (prostate)", "value": 0, "unit": "%"}, {"measurement": "% apoptosis at 20 μM (Annexin V assay)", "setting": "HCT116 (colon)", "value": 3, "unit": "%"}, {"measurement": "% apoptosis at 20 μM (Annexin V assay)", "setting": "A549 (lung)", "value": 0, "unit": "%"}]}, {"smiles": "CN(C)Cc1c(C(=O)NCCOc2ccc(C(=O)NO)cc2)oc2ccccc12", "note": "[PCI-24781, reference compound]", "values": [{"measurement": "GI50", "setting": "J.RT3-T.5 [9]", "value": 140, "unit": "nM"}, {"measurement": "Apoptosis at 0.125 μM (%)", "setting": "J.RT3-T.5 [2]; J.RT3-T.5, 0.125 μM", "value": 32, "unit": "%"}, {"measurement": "GI50", "setting": "P116 [10]", "value": 190, "unit": "nM"}, {"measurement": "HDAC8 protein levels", "setting": "HDAC8 protein expression", "value": "affected"}, {"measurement": "Apoptosis at 0.125 μM (%)", "setting": "J.γ1 [4]; J.γ1, 0.125 μM", "value": 18, "unit": "%"}, {"measurement": "Apoptosis at 0.125 μM (%)", "setting": "Jurkat [5]; 0.125 μM", "value": 48, "unit": "%"}, {"measurement": "GI50", "setting": "J.γ1 [11]", "value": 140, "unit": "nM"}, {"measurement": "GI50", "setting": "Jurkat [12]", "value": 130, "unit": "nM"}, {"measurement": "Apoptosis at 0.125 μM (%)", "setting": "P116 [7]; P116, 0.125 μM", "value": 76, "unit": "%"}, {"measurement": "HDAC1 levels", "setting": "HDAC1 levels", "value": "decreased"}]}]}
